Measured values taken from ChEMBL document CHEMBL5325488, “Discovery of SMD-3040 as a Potent and Selective SMARCA2 PROTAC Degrader with Strong in vivo Antitumor Activity” (J Med Chem, 2023).

How the values were obtained:
Format in all cases: cell-based
[1] = molecular target: T1, von Hippel-Lindau disease tumor suppressor/SWI/SNF-related matrix-associated actin-dependent regulator of chromatin subfamily A member 2 (Homo sapiens, UniProt P51531+P40337); experiment: PROTAC activity at VHL/C-terminal HiBiT fused SMARCA2 in human HeLa cells assessed as induction of SMARCA2 degradation incubated for 24 hrs by Nano-Glo HiBiT analysis
Target sequence in this assay (P51531 whole entry, the tested form may be a part): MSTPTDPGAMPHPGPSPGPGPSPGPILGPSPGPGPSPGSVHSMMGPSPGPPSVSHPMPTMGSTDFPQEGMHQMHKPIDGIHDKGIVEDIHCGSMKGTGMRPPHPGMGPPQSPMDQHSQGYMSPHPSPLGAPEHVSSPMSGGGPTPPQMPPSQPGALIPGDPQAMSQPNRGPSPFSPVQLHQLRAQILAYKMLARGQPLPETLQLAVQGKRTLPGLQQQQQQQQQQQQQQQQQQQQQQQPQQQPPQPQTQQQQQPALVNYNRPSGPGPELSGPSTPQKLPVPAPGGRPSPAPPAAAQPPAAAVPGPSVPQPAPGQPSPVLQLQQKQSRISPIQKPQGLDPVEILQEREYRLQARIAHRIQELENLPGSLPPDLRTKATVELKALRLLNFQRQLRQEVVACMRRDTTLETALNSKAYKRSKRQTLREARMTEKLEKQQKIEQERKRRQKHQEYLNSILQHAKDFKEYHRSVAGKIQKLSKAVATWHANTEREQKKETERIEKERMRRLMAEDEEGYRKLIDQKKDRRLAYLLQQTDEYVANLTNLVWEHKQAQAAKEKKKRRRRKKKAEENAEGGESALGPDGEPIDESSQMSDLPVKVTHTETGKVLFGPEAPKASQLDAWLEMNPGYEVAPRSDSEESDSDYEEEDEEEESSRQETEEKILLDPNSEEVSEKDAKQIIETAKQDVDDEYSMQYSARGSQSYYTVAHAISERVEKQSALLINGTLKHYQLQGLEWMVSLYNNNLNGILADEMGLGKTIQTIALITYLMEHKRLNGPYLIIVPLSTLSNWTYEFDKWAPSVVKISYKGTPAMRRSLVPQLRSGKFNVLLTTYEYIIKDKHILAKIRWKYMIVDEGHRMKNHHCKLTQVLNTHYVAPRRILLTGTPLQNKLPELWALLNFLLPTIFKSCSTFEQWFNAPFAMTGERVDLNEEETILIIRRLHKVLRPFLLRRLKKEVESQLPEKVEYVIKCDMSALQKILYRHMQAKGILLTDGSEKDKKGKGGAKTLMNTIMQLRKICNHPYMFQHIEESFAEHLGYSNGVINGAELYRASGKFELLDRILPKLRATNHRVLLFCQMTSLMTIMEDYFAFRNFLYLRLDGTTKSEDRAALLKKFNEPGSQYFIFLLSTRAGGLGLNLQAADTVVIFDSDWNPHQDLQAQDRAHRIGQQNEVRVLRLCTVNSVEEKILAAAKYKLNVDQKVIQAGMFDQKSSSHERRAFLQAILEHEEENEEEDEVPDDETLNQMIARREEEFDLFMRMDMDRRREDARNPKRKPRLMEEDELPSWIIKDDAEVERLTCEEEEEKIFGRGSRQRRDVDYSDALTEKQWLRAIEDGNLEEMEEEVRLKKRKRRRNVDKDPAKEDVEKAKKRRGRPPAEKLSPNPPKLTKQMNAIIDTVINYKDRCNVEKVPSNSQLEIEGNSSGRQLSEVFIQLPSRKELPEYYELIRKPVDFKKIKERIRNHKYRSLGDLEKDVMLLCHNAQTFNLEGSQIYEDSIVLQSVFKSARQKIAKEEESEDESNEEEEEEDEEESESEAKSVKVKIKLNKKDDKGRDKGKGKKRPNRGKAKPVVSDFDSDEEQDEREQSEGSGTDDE
Target sequence in this assay (P40337 whole entry, the tested form may be a part): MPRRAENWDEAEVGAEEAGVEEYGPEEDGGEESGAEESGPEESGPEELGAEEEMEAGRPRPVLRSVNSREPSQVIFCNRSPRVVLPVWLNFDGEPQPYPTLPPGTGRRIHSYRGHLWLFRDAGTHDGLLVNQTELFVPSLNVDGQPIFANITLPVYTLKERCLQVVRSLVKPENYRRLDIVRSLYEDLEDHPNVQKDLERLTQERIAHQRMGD

[2] = molecular target: T1, von Hippel-Lindau disease tumor suppressor/SWI/SNF-related matrix-associated actin-dependent regulator of chromatin subfamily A member 2; experiment: PROTAC activity at VHL/C-terminal HiBiT fused SMARCA2 in human HeLa cells assessed as induction of SMARCA2 degradation by measuring maximal efficacy incubated for 24 hrs by Nano-Glo HiBiT analysis relative to control
Target sequence in this assay (P40337 whole entry, looked up, the tested form may be a part): as the sequence (P40337 whole entry, the tested form may be a part) above
Target sequence in this assay (P51531 whole entry, looked up, the tested form may be a part): as the sequence (P51531 whole entry, the tested form may be a part) above

[3] = molecular target: T2, von Hippel-Lindau disease tumor suppressor/SWI/SNF-related matrix-associated actin-dependent regulator of chromatin subfamily A member 4 (Homo sapiens, UniProt P51532+P40337); experiment: PROTAC activity at VHL/C-terminal HiBiT fused SMARCA4 in human HeLa cells assessed as induction of SMARCA4 degradation incubated for 24 hrs by Nano-Glo HiBiT analysis
Target sequence in this assay (P51532 whole entry, the tested form may be a part): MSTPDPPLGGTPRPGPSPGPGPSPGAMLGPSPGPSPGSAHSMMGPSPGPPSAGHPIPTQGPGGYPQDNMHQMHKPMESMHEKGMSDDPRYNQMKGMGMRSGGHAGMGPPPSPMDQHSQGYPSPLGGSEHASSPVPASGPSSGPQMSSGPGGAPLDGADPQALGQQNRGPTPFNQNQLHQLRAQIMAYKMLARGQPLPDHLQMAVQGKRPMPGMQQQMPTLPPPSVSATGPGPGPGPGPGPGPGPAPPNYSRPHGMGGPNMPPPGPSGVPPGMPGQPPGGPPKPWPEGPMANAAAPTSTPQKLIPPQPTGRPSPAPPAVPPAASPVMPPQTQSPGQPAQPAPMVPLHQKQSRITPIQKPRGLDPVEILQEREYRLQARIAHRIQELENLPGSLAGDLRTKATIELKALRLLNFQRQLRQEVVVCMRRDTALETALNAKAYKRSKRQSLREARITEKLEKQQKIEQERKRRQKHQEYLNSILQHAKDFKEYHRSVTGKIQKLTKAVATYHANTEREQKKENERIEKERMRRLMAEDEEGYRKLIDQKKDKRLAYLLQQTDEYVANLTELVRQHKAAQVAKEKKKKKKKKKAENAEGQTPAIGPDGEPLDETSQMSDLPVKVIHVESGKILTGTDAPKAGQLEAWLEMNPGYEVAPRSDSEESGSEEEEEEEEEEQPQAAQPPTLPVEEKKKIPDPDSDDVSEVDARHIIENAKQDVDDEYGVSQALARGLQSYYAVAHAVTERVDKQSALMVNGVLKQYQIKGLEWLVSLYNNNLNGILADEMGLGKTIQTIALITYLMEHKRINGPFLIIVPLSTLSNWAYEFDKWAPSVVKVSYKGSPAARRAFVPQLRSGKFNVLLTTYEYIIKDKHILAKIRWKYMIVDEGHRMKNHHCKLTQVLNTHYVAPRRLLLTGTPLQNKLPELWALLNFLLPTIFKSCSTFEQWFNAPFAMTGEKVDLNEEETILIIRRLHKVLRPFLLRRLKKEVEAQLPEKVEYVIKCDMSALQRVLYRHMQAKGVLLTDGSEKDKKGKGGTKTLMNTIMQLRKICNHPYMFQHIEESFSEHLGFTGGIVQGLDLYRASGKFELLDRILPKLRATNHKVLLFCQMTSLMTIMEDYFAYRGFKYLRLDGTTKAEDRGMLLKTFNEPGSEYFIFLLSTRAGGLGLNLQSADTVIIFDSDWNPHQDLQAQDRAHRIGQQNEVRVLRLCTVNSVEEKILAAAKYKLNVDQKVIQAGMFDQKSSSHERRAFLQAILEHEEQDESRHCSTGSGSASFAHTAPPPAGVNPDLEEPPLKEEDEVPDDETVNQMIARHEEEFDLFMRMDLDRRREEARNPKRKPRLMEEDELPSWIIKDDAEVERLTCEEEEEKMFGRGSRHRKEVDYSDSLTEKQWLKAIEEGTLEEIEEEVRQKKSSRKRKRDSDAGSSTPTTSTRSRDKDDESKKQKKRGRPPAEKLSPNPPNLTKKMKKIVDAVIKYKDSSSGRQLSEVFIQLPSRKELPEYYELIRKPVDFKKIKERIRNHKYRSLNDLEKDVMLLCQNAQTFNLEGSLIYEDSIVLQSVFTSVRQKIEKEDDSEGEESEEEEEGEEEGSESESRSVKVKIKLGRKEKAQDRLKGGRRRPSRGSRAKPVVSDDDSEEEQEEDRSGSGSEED
Target sequence in this assay (P40337 whole entry, the tested form may be a part): as the sequence (P40337 whole entry, the tested form may be a part) above

[4] = molecular target: T2, von Hippel-Lindau disease tumor suppressor/SWI/SNF-related matrix-associated actin-dependent regulator of chromatin subfamily A member 4; experiment: PROTAC activity at VHL/C-terminal HiBiT fused SMARCA4 in human HeLa cells assessed as induction of SMARCA4 degradation by measuring maximal efficacy incubated for 24 hrs by Nano-Glo HiBiT analysis relative to control
Target sequence in this assay (P40337 whole entry, looked up, the tested form may be a part): as the sequence (P40337 whole entry, the tested form may be a part) above
Target sequence in this assay (P51532 whole entry, looked up, the tested form may be a part): as the sequence (P51532 whole entry, the tested form may be a part) above

SMILES	DC50 [1] [nM]	Emax [2] [%]	DC50 [3] [nM]	Emax [4] [%]
Cc1ncsc1-c1ccc([C@H](C)NC(=O)[C@@H]2C[C@@H](O)CN2C(=O)[C@@H](NC(=O)C2CCC(N3CC4(CCC(n5cc(-c6cc(-c7ccccc7O)nnc6N)cn5)CC4)C3)CC2)C(C)(C)C)cc1 (some centres not stated)	25	85	> 1000	55
Cc1ncsc1-c1ccc([C@H](C)NC(=O)[C@@H]2C[C@@H](O)CN2C(=O)[C@@H](NC(=O)CCCCCCCCCCn2cc(-c3cc(-c4ccccc4O)nnc3N)cn2)C(C)(C)C)cc1	6	93	47	87
Cc1ncsc1-c1ccc([C@H](C)NC(=O)[C@@H]2C[C@@H](O)CN2C(=O)[C@@H](NC(=O)CCN2CCN(CCCn3cc(-c4cc(-c5ccccc5O)nnc4N)cn3)CC2)C(C)C)cc1	682	62	585	76
Cc1ncsc1-c1ccc([C@H](C)NC(=O)[C@@H]2C[C@@H](O)CN2C(=O)[C@@H](NC(=O)CCCCn2cc(-c3cc(-c4ccccc4O)nnc3N)cn2)C(C)(C)C)cc1	134	85	> 1000	57
Cc1ncsc1-c1ccc([C@H](C)NC(=O)[C@@H]2C[C@@H](O)CN2C(=O)[C@@H](NC(=O)CCCCCn2cc(-c3cc(-c4ccccc4O)nnc3N)cn2)C(C)(C)C)cc1	12	93	> 1000	73
Cc1ncsc1-c1ccc([C@H](C)NC(=O)[C@@H]2C[C@@H](O)CN2C(=O)[C@@H](NC(=O)CCCCCCCCn2cc(-c3cc(-c4ccccc4O)nnc3N)cn2)C(C)(C)C)cc1	3	95	31	93
Cc1ncsc1-c1ccc([C@H](C)NC(=O)[C@@H]2C[C@@H](O)CN2C(=O)[C@@H](NC(=O)CCN2CCC(CCCn3cc(-c4cc(-c5ccccc5O)nnc4N)cn3)CC2)C(C)C)cc1	> 1000	12	> 1000	0
Cc1cc([C@H](C(=O)N2C[C@H](O)C[C@H]2C(=O)N[C@@H](CC(=O)NCCCCCCCCn2cc(-c3cc(-c4ccccc4O)nnc3N)cn2)c2ccc(-c3scnc3C)cc2)C(C)C)on1	67	91	66	93
Cc1ncsc1-c1ccc([C@H](C)NC(=O)[C@@H]2C[C@@H](O)CN2C(=O)[C@@H](NC(=O)[C@H]2CC[C@H](CN3CCC4(CCC(n5cc(-c6cc(-c7ccccc7O)nnc6N)cn5)CC4)CC3)CC2)C(C)(C)C)cc1	5	90	219	66
Cc1ncsc1-c1ccc([C@H](C)NC(=O)[C@@H]2C[C@@H](O)CN2C(=O)[C@@H](NC(=O)CCn2cc(-c3cc(-c4ccccc4O)nnc3N)cn2)C(C)(C)C)cc1	> 1000	19	> 1000	0
Cc1cc([C@H](C(=O)N2C[C@H](O)C[C@H]2C(=O)N[C@@H](CC(=O)NCCCCCCCCCn2cc(-c3cc(-c4ccccc4O)nnc3N)cn2)c2ccc(-c3scnc3C)cc2)C(C)C)on1	71	94	75	94
Cc1cc([C@H](C(=O)N2C[C@H](O)C[C@H]2C(=O)N[C@@H](CC(=O)NCCCCCCCCCCCCn2cc(-c3cc(-c4ccccc4O)nnc3N)cn2)c2ccc(-c3scnc3C)cc2)C(C)C)on1	46	93	90	89
Cc1ncsc1-c1ccc([C@H](C)NC(=O)[C@@H]2C[C@@H](O)CN2C(=O)[C@@H](NC(=O)CCCCCCn2cc(-c3cc(-c4ccccc4O)nnc3N)cn2)C(C)(C)C)cc1	16	89	212	81
Cc1cc([C@H](C(=O)N2C[C@H](O)C[C@H]2C(=O)N[C@@H](CC(=O)NCCCCCCn2cc(-c3cc(-c4ccccc4O)nnc3N)cn2)c2ccc(-c3scnc3C)cc2)C(C)C)on1	18	86	213	84
Cc1ncsc1-c1ccc([C@@H](C)NC(=O)[C@H]2C[C@H](O)CN2C(=O)[C@H](NC(=O)C2CCC(N3CCC4(CCC(n5cc(-c6cc(-c7ccccc7O)nnc6N)cn5)CC4)CC3)CC2)C(C)(C)C)cc1 (single isomer, unassigned)	34	90	315	72
Cc1ncsc1-c1ccc([C@H](C)NC(=O)[C@@H]2C[C@@H](O)CN2C(=O)[C@@H](NC(=O)CCCn2cc(-c3cc(-c4ccccc4O)nnc3N)cn2)C(C)(C)C)cc1	132	88	463	84
Cc1ncsc1-c1ccc([C@H](C)NC(=O)[C@@H]2C[C@@H](O)CN2C(=O)[C@@H](NC(=O)CCCCCCCCCCCn2cc(-c3cc(-c4ccccc4O)nnc3N)cn2)C(C)(C)C)cc1	3	95	13	96
Cc1ncsc1-c1ccc([C@H](C)NC(=O)[C@@H]2C[C@@H](O)CN2C(=O)[C@@H](NC(=O)CCOCCOCCn2cc(-c3cc(-c4ccccc4O)nnc3N)cn2)C(C)C)cc1	313	77	> 1000	59
Cc1ncsc1-c1ccc([C@H](C)NC(=O)[C@@H]2C[C@@H](O)CN2C(=O)[C@@H](NC(=O)COCCOCCOCCn2cc(-c3cc(-c4ccccc4O)nnc3N)cn2)C(C)C)cc1	455	71	> 1000	47
Cc1cc([C@H](C(=O)N2C[C@H](O)C[C@H]2C(=O)N[C@@H](CC(=O)NCCCCCCCCCCn2cc(-c3cc(-c4ccccc4O)nnc3N)cn2)c2ccc(-c3scnc3C)cc2)C(C)C)on1	37	95	53	93
Cc1cc([C@H](C(=O)N2C[C@H](O)C[C@H]2C(=O)N[C@@H](CC(=O)NCCCCCCCn2cc(-c3cc(-c4ccccc4O)nnc3N)cn2)c2ccc(-c3scnc3C)cc2)C(C)C)on1	96	91	91	92
Cc1ncsc1-c1ccc([C@H](C)NC(=O)[C@@H]2C[C@@H](O)CN2C(=O)[C@@H](NC(=O)CCCCCN2CCC(n3cc(-c4cc(-c5ccccc5O)nnc4N)cn3)CC2)C(C)(C)C)cc1	6	94	248	77
Cc1ncsc1-c1ccc([C@H](C)NC(=O)[C@@H]2C[C@@H](O)CN2C(=O)[C@@H](NC(=O)CCCCCCCn2cc(-c3cc(-c4ccccc4O)nnc3N)cn2)C(C)(C)C)cc1	3	95	23	90
